{"source": "PubChem BioAssay AID1417", "about": "(Emory University Molecular Libraries Screening Center, 2008)"}
{"molecular_target": "Induced myeloid leukemia cell differentiation protein Mcl-1 (Homo sapiens) (UniProt Q07820)", "sequence (Q07820 whole entry, looked up)": "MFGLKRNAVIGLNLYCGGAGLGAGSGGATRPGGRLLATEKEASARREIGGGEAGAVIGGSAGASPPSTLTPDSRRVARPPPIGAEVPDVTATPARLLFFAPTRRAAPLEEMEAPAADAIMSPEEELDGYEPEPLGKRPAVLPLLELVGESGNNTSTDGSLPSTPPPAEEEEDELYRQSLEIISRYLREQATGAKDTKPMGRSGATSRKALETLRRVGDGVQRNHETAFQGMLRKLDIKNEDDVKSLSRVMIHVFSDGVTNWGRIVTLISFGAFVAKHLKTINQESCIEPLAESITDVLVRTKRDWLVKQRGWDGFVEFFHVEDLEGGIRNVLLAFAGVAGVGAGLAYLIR", "test": "Mcl-1/Noxa binding inhibitor potency, dose response, biochemical, TR-FRET (AID 1417)", "details": "Mcl-1/Noxa peptide interaction, cell-free TR-FRET (terbium/rhodamine), 2 h; measured here: absolute IC50", "units": {"IC50": "µM"}}
{"smiles": "CNc1ccc(Br)cc(C(=O)/C=C/c2ccc(OC)cc2OC)c1=O", "IC50": 3.53}
{"smiles": "O=C(O)c1ccc(Nc2nc(-c3cc4ccccc4oc3=O)cs2)cc1O", "IC50": 5.36}
{"smiles": "Cc1[nH]n(-c2ncc(-c3ccccc3)s2)c(=O)c1C(c1ccc(Br)cc1)C(C#N)C#N", "note": "(configuration not stated)", "IC50": 6.54}
{"smiles": "O=C(Nc1cccc(S(=O)(=O)NC2=NCCC2)c1)c1cc(-c2ccco2)nc2ccccc12", "IC50": "< 0.4"}
{"smiles": "O=[N+]([O-])c1c(NCCO)cc(Sc2nc3ccccc3s2)c2nonc12", "IC50": "> 54"}
{"smiles": "COc1ccc(C(c2c(O)ccc3ccccc23)N2CCOCC2)c(OC)c1", "note": "(configuration not stated)", "IC50": "< 0.4"}
{"smiles": "Cc1cc(=O)n2[nH]c(-c3ccsc3-n3c(C)ccc3C)cc2n1", "IC50": 2.89}
{"smiles": "CNCc1ccccc1Sc1cc(O)ccc1O", "IC50": 4.17}
{"smiles": "O=c1c2c3c(sc2[nH]c(=S)n1Cc1ccco1)CCC3", "IC50": 1.42}
{"smiles": "CN(C)c1ccc(Sc2nnc(NC(=O)Nc3ccc(Cl)cc3Cl)s2)cc1", "IC50": 3.46}
{"smiles": "Oc1nc(Nc2ccc(F)cc2)sc1/C=C1\\C=Nc2ccccc21", "IC50": 4.32}
{"smiles": "CC1CCCCC1NC(=O)c1ccc2c(c1)[nH]c(=O)n2C1CCCC1", "note": "(configuration not stated)", "IC50": "> 54"}
{"smiles": "COc1ccc(CN2C(=O)NC(=O)/C(=C/c3ccc([N+](=O)[O-])o3)C2=O)cc1", "IC50": 2.81}
{"smiles": "COc1cc(/C=N/Nc2nc(C)nc3c2cnn3-c2ccccc2)ccc1O", "IC50": 13.3}
{"smiles": "NS(=O)(=O)c1ccc(-c2ccc(/C=C3\\SC(=S)N(C4CCS(=O)(=O)C4)C3=O)o2)cc1", "note": "(configuration not stated)", "IC50": 2.55}
{"smiles": "Cc1nc2c(c(=O)n1CCC1=CCCCC1)c1nc3ccccc3nc1n2/N=C/c1ccco1", "IC50": 4.44}
{"smiles": "CC(C)(C)C1=CC=C(C(C)(C)C)C(=O)C1=O", "IC50": "< 0.4"}
{"smiles": "O=C(Nc1cccc(Oc2ccc(C(=O)O)c(C(=O)O)c2)c1)c1ccc(-c2ccccc2)cc1", "IC50": 3.61}
{"smiles": "COc1cc(/C=N/NC(=O)C(Cc2c[nH]c3ccccc23)NC(=O)OCc2ccccc2)cc([N+](=O)[O-])c1O", "note": "(configuration not stated)", "IC50": 4.82}
{"smiles": "O=C1SC(SCc2ccccc2Cl)=N/C1=C\\c1ccc(C(=O)O)cc1", "IC50": 4.67}
{"smiles": "O=C(O)CCCN1C(=O)/C(=C\\c2ccc(-c3nc4ccccc4s3)o2)SC1=S", "IC50": 1.12}
{"smiles": "COc1ccc(-c2cnnc(N/N=C/c3ccc(O)cc3)n2)cc1", "IC50": 8.41}
{"smiles": "O=C(O)c1cccc(N/N=C/C2=C(Cl)c3cc(Cl)ccc3SC2)c1", "IC50": 4.33}
{"smiles": "CC(/C=C1\\SC(=S)N(NS(=O)(=O)c2ccccc2)C1=O)=C\\c1ccccc1", "IC50": 17.9}
{"smiles": "O=C1CCCC2=C1C(c1ccc(O)c(O)c1)Nc1ccc3ncccc3c12", "note": "(configuration not stated)", "IC50": "< 0.4"}
{"smiles": "O=C1OCC2OC(O)C(O)C(O)C2OC(=O)c2cc(O)c(O)c(O)c2-c2c(O)c(O)c3oc(=O)c4c(c(O)c(O)c5oc(=O)c2c3c54)-c2c1cc(O)c(O)c2O", "note": "(configuration not stated)", "IC50": "< 0.4"}
{"smiles": "N=c1c(C(=O)NCc2ccc(F)cc2)cc2c(=O)n3ccccc3nc2n1Cc1cccnc1", "IC50": 3.21}
{"smiles": "O=C(/C=C/c1ccc(Cl)c([N+](=O)[O-])c1)Nc1ccc(N2CCCC2)cc1", "IC50": 8.3}
{"smiles": "O=S(=O)(Nc1cc(Sc2ncn[nH]2)c(O)c2ccccc12)c1ccccc1", "IC50": "< 0.4"}
{"smiles": "CC(C)CNC(=O)c1c(N)n(Cc2ccco2)c2nc3ccccc3nc12", "IC50": "> 54"}
{"smiles": "O=c1cc(-c2ccccc2Cl)oc2c(NS(=O)(=O)c3cc(Cl)cc(Cl)c3O)ccc(O)c12", "IC50": 2.41}
{"smiles": "CN(C)c1ccc(/C=N/NC(=O)c2cccc(C(=O)N/N=C/c3ccc(N(C)C)cc3)n2)cc1", "IC50": "< 0.4"}
{"smiles": "CC1(c2ccccc2)CC(C)(C)N2C(=O)/C(=C3\\SC(=S)NC3=O)c3cccc1c32", "note": "(configuration not stated)", "IC50": "< 0.4"}
{"smiles": "CCc1nnc(NC(=O)c2cc(-c3ccco3)nc3ccccc23)s1", "IC50": 2.54}
{"smiles": "CNc1sc(C(=O)c2ccccc2F)c(N)c1-c1nc2ccccc2s1", "IC50": 5.67}
{"smiles": "CN1CCN(c2ccc(Cl)cc2NC(=O)c2ccc(S(=O)(=O)N3CCCCCC3)cc2)CC1", "IC50": 3.89}
{"smiles": "CSc1nc(NCCOCCO)c2sc3nc(-c4ccco4)c4c(c3c2n1)CCC4", "IC50": "< 0.4"}
{"smiles": "CC(C)n1c(Nn2cnnc2)nc2ccccc21", "IC50": "> 54"}
{"smiles": "COC(=O)c1ccc(CSc2nc(-c3ccccc3)cs2)o1", "IC50": "> 54"}
{"smiles": "CCOc1cc(/C=C2\\C(=O)N(c3nc(-c4ccc(Br)cc4)cs3)N=C2c2ccccc2)ccc1O", "IC50": 1.65}
{"smiles": "CCOc1ccc(C2C3=C(Nc4nc(N)[nH]c(=O)c42)c2ccccc2C3=O)cc1", "note": "(configuration not stated)", "IC50": 23.3}
{"smiles": "CCCCCCCCCCCCCCCC[n+]1cccc2ccccc21", "IC50": 5.34}
{"smiles": "CCN(c1ccc(NC(=O)c2ccc(Cl)nc2)cc1)C(C)C", "IC50": "> 54"}
{"smiles": "N=c1c(C(=O)NCc2ccc3c(c2)OCO3)cc2c(=O)n3ccccc3nc2n1Cc1cccnc1", "IC50": 3.26}
{"smiles": "Cn1c(N)c(C(=O)COC(=O)c2cc(-c3ccco3)nc3ccccc23)c(=O)n(C)c1=O", "IC50": 3.41}
{"smiles": "CCN(CC)c1ccc(NC(=O)Nc2ccc(C(C)=O)cc2)cc1", "IC50": "> 54"}
{"smiles": "CC(C)Nc1nnc(SCC(=O)Nc2ccc3c(c2)C(=O)c2ccccc2C3=O)s1", "IC50": 2.01}
{"smiles": "O=c1c2ccccc2nc(-c2ccco2)n1-c1cccnc1", "IC50": "> 54"}
{"smiles": "Cc1cc(/C=N/n2c(COc3ccccc3)nc3ccccc3c2=O)c(O)c([N+](=O)[O-])c1", "IC50": 1.56}
{"smiles": "CCN(CC)Cc1cc(O)c(CN(CC)CC)cc1O", "IC50": "< 0.4"}
{"smiles": "Cn1c(SCC(=O)Nc2ccc3nc(SCC(=O)N4CCCC4)sc3c2)nnc1-c1ccc(N)cc1", "IC50": 0.688}
{"smiles": "CC(C)(C)c1ccc(CN2N=Nc3ccccc3S2(=O)=O)cc1", "IC50": 18.9}
